# Data taken from PMC10254852, “Design, Synthesis and Anticancer Evaluation of Nitroimidazole Radiosensitisers” (Molecules, 2023).
# Tested on: not listed separately
# Experiment: Solubility in αMEM culture medium (HPLC of saturated solutions)
# Type: physicochemical
# Details: αMEM culture medium with 5% foetal calf serum and 1% DMSO, plasma or biological fluid, kinetic from dmso stock, α-MEM culture medium containing 5% foetal calf serum, 37 °C
row,SMILES,solubility
1,"O=[N+]([O-])c1nccn1CS(=O)(=O)NCC(O)CO (centres unmarked) [Compound 13, N-(2,3-Dihydroxypropyl)-1-(2-nitro-1H-imidazol-1-yl)methanesulfonamide]",110 mM
2,"O=[N+]([O-])c1nccn1CS(=O)(=O)NC(CO)C(O)CO (centres unmarked) [Compound 14, 1-(2-Nitro-1H-imidazol-1-yl)-N-(1,3,4-trihydroxybutan-2-yl)methanesulfonamide]",95.8 mM
3,"O=[N+]([O-])c1nccn1CCS(=O)(=O)NCC(O)CO (centres unmarked) [Compound 15, N-(2,3-Dihydroxypropyl)-2-(2-nitro-1H-imidazol-1-yl)ethane-1-sulfonamide]",84.3 mM
4,"O=[N+]([O-])c1cncn1CCS(=O)(=O)NCCN1CCOCC1 [Compound 16, N-(2-Morpholinoethyl)-2-(5-nitro-1H-imidazol-1-yl)ethane-1-sulfonamide]",83 mM

# Tested on: not listed separately
# Experiment: Stability in αMEM culture medium (HPLC after 24 h)
# Type: physicochemical
# Details: after 24 h incubation at 37 °C
# Protocol: The stability of the same solutions after 24 h incubation at 37 °C was measured by HPLC analysis.
row,SMILES,% Stability in αMEM
1,"O=[N+]([O-])c1nccn1CS(=O)(=O)NCC(O)CO (centres unmarked) [Compound 13, N-(2,3-Dihydroxypropyl)-1-(2-nitro-1H-imidazol-1-yl)methanesulfonamide]",99.3%
2,"O=[N+]([O-])c1nccn1CS(=O)(=O)NC(CO)C(O)CO (centres unmarked) [Compound 14, 1-(2-Nitro-1H-imidazol-1-yl)-N-(1,3,4-trihydroxybutan-2-yl)methanesulfonamide]",98.5%
3,"O=[N+]([O-])c1nccn1CCS(=O)(=O)NCC(O)CO (centres unmarked) [Compound 15, N-(2,3-Dihydroxypropyl)-2-(2-nitro-1H-imidazol-1-yl)ethane-1-sulfonamide]",99.9%
4,"O=[N+]([O-])c1cncn1CCS(=O)(=O)NCCN1CCOCC1 [Compound 16, N-(2-Morpholinoethyl)-2-(5-nitro-1H-imidazol-1-yl)ethane-1-sulfonamide]",99.9%

# Tested on: HCT116/54C cells
# Experiment: In vitro cytotoxicity, 4 h exposure oxic/anoxic, 5-day regrowth, sulforhodamine B
# Type: cell-based, human
# Details: HCT116/54C, IC50(oxic)/IC50(anoxic)
# Text: (§1) This allowed derivation of hypoxia cytotoxicity ratios (HCR) as IC50(oxic)/IC50(anoxic) in an HCT116 subclone HCT116/54C and two HNSCC cell lines, FaDu and UT-SCC-74B (Table 2).
# (§2) HCT116/54C is an HCT116 subline that originated from a mixed culture with UT-SCC-54C cells, which was supplied alongside UT-SCC-74B by Prof. Bradly Wouters (University Health Network, Toronto, ON, Canada). HCT116/54C and UT-SCC-74B cells were passaged in minimum essential media (MEM, ThermoFisher Scientific, Waltham, MA, USA) with 10% foetal calf serum (FCS, Moregate Biotech, Hamilton, New Zealand), 4.5 mg/mL D-glucose (Sigma-Aldrich, St. Louis, MO, USA) and 20 mM HEPES (Sigma-Aldrich). FaDu cells were sourced from American Type Culture Collection and cultured in αMEM (ThermoFisher Scientific) with 10% FCS. All cell lines were confirmed mycoplasma-free by PlasmoTest (InvivoGen, San Diego, CA, USA) and were derived from STR-authenticated cryopreserved stocks. Log-phase cells were seeded into 96-well plates at 800 cells/well for HCT116/54C and 1500 cells/well for FaDu. […] After drug washout, cells were grown and stained as for the oxic IC50 assays. The hypoxic cytotoxicity ratio HCR was determined as HCR = IC50(oxic)/IC50(anoxic).
row,SMILES,HCR
1,"O=[N+]([O-])c1nccn1CS(=O)(=O)NCC(O)CO (centres unmarked) [Compound 13, N-(2,3-Dihydroxypropyl)-1-(2-nitro-1H-imidazol-1-yl)methanesulfonamide]",3.5
2,"O=[N+]([O-])c1nccn1CS(=O)(=O)NC(CO)C(O)CO (centres unmarked) [Compound 14, 1-(2-Nitro-1H-imidazol-1-yl)-N-(1,3,4-trihydroxybutan-2-yl)methanesulfonamide]",1.3
3,"O=[N+]([O-])c1nccn1CCS(=O)(=O)NCC(O)CO (centres unmarked) [Compound 15, N-(2,3-Dihydroxypropyl)-2-(2-nitro-1H-imidazol-1-yl)ethane-1-sulfonamide]",>1.9
4,"O=[N+]([O-])c1cncn1CCS(=O)(=O)NCCN1CCOCC1 [Compound 16, N-(2-Morpholinoethyl)-2-(5-nitro-1H-imidazol-1-yl)ethane-1-sulfonamide]",1.0

# Same assay, conditions: Homo sapiens; HCT116/54C, anoxic, 4 h exposure, mean ± SEM, n = 3–4; read-out: IC50 Anoxic
row,SMILES,IC50
1,"O=[N+]([O-])c1nccn1CS(=O)(=O)NCC(O)CO (centres unmarked) [Compound 13, N-(2,3-Dihydroxypropyl)-1-(2-nitro-1H-imidazol-1-yl)methanesulfonamide]",4.1 ± 0.1 mM
2,"O=[N+]([O-])c1nccn1CS(=O)(=O)NC(CO)C(O)CO (centres unmarked) [Compound 14, 1-(2-Nitro-1H-imidazol-1-yl)-N-(1,3,4-trihydroxybutan-2-yl)methanesulfonamide]",12.6 ± 0.5 mM
3,"O=[N+]([O-])c1nccn1CCS(=O)(=O)NCC(O)CO (centres unmarked) [Compound 15, N-(2,3-Dihydroxypropyl)-2-(2-nitro-1H-imidazol-1-yl)ethane-1-sulfonamide]",12.8 ± 4.4 mM
4,"O=[N+]([O-])c1cncn1CCS(=O)(=O)NCCN1CCOCC1 [Compound 16, N-(2-Morpholinoethyl)-2-(5-nitro-1H-imidazol-1-yl)ethane-1-sulfonamide]",12.9 ± 0.9 mM

# Same assay, conditions: Homo sapiens; HCT116/54C, oxic, 4 h exposure, mean ± SEM, n = 3–4; read-out: IC50 Oxic
row,SMILES,IC50
1,"O=[N+]([O-])c1nccn1CS(=O)(=O)NCC(O)CO (centres unmarked) [Compound 13, N-(2,3-Dihydroxypropyl)-1-(2-nitro-1H-imidazol-1-yl)methanesulfonamide]",14.5 ± 2.9 mM
2,"O=[N+]([O-])c1nccn1CS(=O)(=O)NC(CO)C(O)CO (centres unmarked) [Compound 14, 1-(2-Nitro-1H-imidazol-1-yl)-N-(1,3,4-trihydroxybutan-2-yl)methanesulfonamide]",16.4 ± 3 mM
3,"O=[N+]([O-])c1nccn1CCS(=O)(=O)NCC(O)CO (centres unmarked) [Compound 15, N-(2,3-Dihydroxypropyl)-2-(2-nitro-1H-imidazol-1-yl)ethane-1-sulfonamide]",> 25 mM
4,"O=[N+]([O-])c1cncn1CCS(=O)(=O)NCCN1CCOCC1 [Compound 16, N-(2-Morpholinoethyl)-2-(5-nitro-1H-imidazol-1-yl)ethane-1-sulfonamide]",12.8 ± 1.5 mM

# Tested on: UT-SCC-74B cells
# Experiment: as above
# Type: cell-based, human
# Details: Homo sapiens, anoxic, 4 h exposure, mean ± SEM, n = 3–4, read-out: IC50 Anoxic
# Text: as §1, §2
row,SMILES,IC50
1,"O=[N+]([O-])c1nccn1CS(=O)(=O)NCC(O)CO (centres unmarked) [Compound 13, N-(2,3-Dihydroxypropyl)-1-(2-nitro-1H-imidazol-1-yl)methanesulfonamide]",2.6 ± 0.1 mM
2,"O=[N+]([O-])c1cncn1CCS(=O)(=O)NCCN1CCOCC1 [Compound 16, N-(2-Morpholinoethyl)-2-(5-nitro-1H-imidazol-1-yl)ethane-1-sulfonamide]",10.3 ± 2.6 mM

# Same assay, conditions: Homo sapiens, oxic, 4 h exposure, mean ± SEM, n = 3–4, read-out: IC50 Oxic
row,SMILES,IC50
1,"O=[N+]([O-])c1nccn1CS(=O)(=O)NCC(O)CO (centres unmarked) [Compound 13, N-(2,3-Dihydroxypropyl)-1-(2-nitro-1H-imidazol-1-yl)methanesulfonamide]",10.3 ± 1.7 mM
2,"O=[N+]([O-])c1cncn1CCS(=O)(=O)NCCN1CCOCC1 [Compound 16, N-(2-Morpholinoethyl)-2-(5-nitro-1H-imidazol-1-yl)ethane-1-sulfonamide]",14.1 ± 2.1 mM

# Same assay, conditions: IC50(oxic)/IC50(anoxic)
row,SMILES,HCR
1,"O=[N+]([O-])c1nccn1CS(=O)(=O)NCC(O)CO (centres unmarked) [Compound 13, N-(2,3-Dihydroxypropyl)-1-(2-nitro-1H-imidazol-1-yl)methanesulfonamide]",4.0
2,"O=[N+]([O-])c1cncn1CCS(=O)(=O)NCCN1CCOCC1 [Compound 16, N-(2-Morpholinoethyl)-2-(5-nitro-1H-imidazol-1-yl)ethane-1-sulfonamide]",1.4

# Tested on: FaDu cells
# Experiment: as above
# Type: cell-based
# Details: Homo sapiens, anoxic, 4 h exposure, mean ± SEM, n = 3–4, read-out: IC50 Anoxic
# Text: as §1, §2
row,SMILES,IC50
1,"O=[N+]([O-])c1nccn1CS(=O)(=O)NCC(O)CO (centres unmarked) [Compound 13, N-(2,3-Dihydroxypropyl)-1-(2-nitro-1H-imidazol-1-yl)methanesulfonamide]",4.3 ± 0.3 mM
2,"O=[N+]([O-])c1nccn1CS(=O)(=O)NC(CO)C(O)CO (centres unmarked) [Compound 14, 1-(2-Nitro-1H-imidazol-1-yl)-N-(1,3,4-trihydroxybutan-2-yl)methanesulfonamide]",7.9 ± 1.1 mM
3,"O=[N+]([O-])c1nccn1CCS(=O)(=O)NCC(O)CO (centres unmarked) [Compound 15, N-(2,3-Dihydroxypropyl)-2-(2-nitro-1H-imidazol-1-yl)ethane-1-sulfonamide]",7.3 ± 0.9 mM
4,"O=[N+]([O-])c1cncn1CCS(=O)(=O)NCCN1CCOCC1 [Compound 16, N-(2-Morpholinoethyl)-2-(5-nitro-1H-imidazol-1-yl)ethane-1-sulfonamide]",6.1 ± 0.8 mM

# Same assay, conditions: Homo sapiens, oxic, 4 h exposure, mean ± SEM, n = 3–4, read-out: IC50 Oxic
row,SMILES,IC50
1,"O=[N+]([O-])c1nccn1CS(=O)(=O)NCC(O)CO (centres unmarked) [Compound 13, N-(2,3-Dihydroxypropyl)-1-(2-nitro-1H-imidazol-1-yl)methanesulfonamide]",8.7 ± 1.1 mM
2,"O=[N+]([O-])c1nccn1CS(=O)(=O)NC(CO)C(O)CO (centres unmarked) [Compound 14, 1-(2-Nitro-1H-imidazol-1-yl)-N-(1,3,4-trihydroxybutan-2-yl)methanesulfonamide]",5.3 ± 1.1 mM
3,"O=[N+]([O-])c1nccn1CCS(=O)(=O)NCC(O)CO (centres unmarked) [Compound 15, N-(2,3-Dihydroxypropyl)-2-(2-nitro-1H-imidazol-1-yl)ethane-1-sulfonamide]",> 25 mM
4,"O=[N+]([O-])c1cncn1CCS(=O)(=O)NCCN1CCOCC1 [Compound 16, N-(2-Morpholinoethyl)-2-(5-nitro-1H-imidazol-1-yl)ethane-1-sulfonamide]",> 16 mM

# Same assay, conditions: IC50(oxic)/IC50(anoxic)
row,SMILES,HCR
1,"O=[N+]([O-])c1nccn1CS(=O)(=O)NCC(O)CO (centres unmarked) [Compound 13, N-(2,3-Dihydroxypropyl)-1-(2-nitro-1H-imidazol-1-yl)methanesulfonamide]",2.0
2,"O=[N+]([O-])c1nccn1CS(=O)(=O)NC(CO)C(O)CO (centres unmarked) [Compound 14, 1-(2-Nitro-1H-imidazol-1-yl)-N-(1,3,4-trihydroxybutan-2-yl)methanesulfonamide]",0.67
3,"O=[N+]([O-])c1nccn1CCS(=O)(=O)NCC(O)CO (centres unmarked) [Compound 15, N-(2,3-Dihydroxypropyl)-2-(2-nitro-1H-imidazol-1-yl)ethane-1-sulfonamide]",>3.4
4,"O=[N+]([O-])c1cncn1CCS(=O)(=O)NCCN1CCOCC1 [Compound 16, N-(2-Morpholinoethyl)-2-(5-nitro-1H-imidazol-1-yl)ethane-1-sulfonamide]",>2.6

# Tested on: HCT116/54C cells
# Experiment: In vitro radiosensitisation under anoxia, clonogenic survival
# Type: cell-based, human
# Details: compound 1 mM, radiation dose for 1% survival/radiation dose for 1% survival with compound, mean ± SEM
# Protocol: Next, we evaluated in vitro radiosensitisation by using a representative subset of nitroimidazole compounds in HCT116/54C cells with a clonogenic survival endpoint. Radiosensitisation was determined by treating cells under anoxia with a range of radiation doses alone and with compounds at equimolar doses (1 mM). Sensitiser enhancement ratios (SER) were calculated as the ratio of radiation dose required for 1% clonogenic survival alone or with compound (Table 3).
# Cells were seeded onto 96-well plates at 10^5 cells per well and allowed to attach for 2 h. […] The plates were irradiated (Eldorado 78 ^60Co teletherapy unit, ~2 Gy/min) with 15 Gy under anoxia at room temperature for SR experiments. A metal wedge placed on the top of the metal chamber was used to achieve a graduated radiation dose across the plate, varying from 7 to 29 Gy, calibrated by Fricke dosimetry with ammonium thiocyanate as previously described for SER experiments. The control plate (compound alone, no radiation) was left inside the anaerobic chamber at room temperature during the irradiation period. After treatment, the cells were trypsinized and suspended in usual media + 1% penicillin-streptomycin (ThermoFisher Scientific), and 10-fold serial dilutions were plated for clonogenic survival. After 10 days, plates were stained with methylene blue (2 g/L in EtOH/H2O, 1:1 v/v) and colonies with more than 50 cells were counted. The surviving fraction (SF) was determined as: SF = PE(irradiated)/PE(control) where the plating efficiency (PE) = (No. of colonies)/(No. of cells plated). SF was plotted against radiation dose. Survival ratios (SR) were calculated: SR = (cell survival with radiation)/(cell survival with drug + radiation). Sensitizer enhancement ratios (SER) were calculated: SER = (radiation dose for 1% survival without compound)/(radiation dose for 1% survival with compound).
row,SMILES,SER at 1 mM
1,"O=[N+]([O-])c1nccn1CS(=O)(=O)NCC(O)CO (centres unmarked) [Compound 13, N-(2,3-Dihydroxypropyl)-1-(2-nitro-1H-imidazol-1-yl)methanesulfonamide]",1.00 ± 0.00
2,"O=[N+]([O-])c1nccn1CS(=O)(=O)NC(CO)C(O)CO (centres unmarked) [Compound 14, 1-(2-Nitro-1H-imidazol-1-yl)-N-(1,3,4-trihydroxybutan-2-yl)methanesulfonamide]",1.00 ± 0.00
3,"O=[N+]([O-])c1cncn1CCS(=O)(=O)NCCN1CCOCC1 [Compound 16, N-(2-Morpholinoethyl)-2-(5-nitro-1H-imidazol-1-yl)ethane-1-sulfonamide]",1.31 ± 0.01

# Tested on: not given
# Experiment: not given
# Details: not given
row,SMILES,melting point
1,"O=[N+]([O-])c1nccn1CS(=O)(=O)NCC(O)CO (centres unmarked) [Compound 13, N-(2,3-Dihydroxypropyl)-1-(2-nitro-1H-imidazol-1-yl)methanesulfonamide]",127 to 129 °C
2,"O=[N+]([O-])c1nccn1CS(=O)(=O)NC(CO)C(O)CO (centres unmarked) [Compound 14, 1-(2-Nitro-1H-imidazol-1-yl)-N-(1,3,4-trihydroxybutan-2-yl)methanesulfonamide]",128 to 131 °C
3,"O=[N+]([O-])c1nccn1CCS(=O)(=O)NCC(O)CO (centres unmarked) [Compound 15, N-(2,3-Dihydroxypropyl)-2-(2-nitro-1H-imidazol-1-yl)ethane-1-sulfonamide]",120 to 123 °C
